The subject of one series is carrageenin-oedema. Briefly: Anti-inflammatory activity, carrageenin-oedema method. In kind it is in vivo. To be noted: rats, oral 3 to 30 mg/Kg in carboxymethylcellulose; natural product = 1.0.
For a further series, the system named is Swiss mice. Kind of series: Analgesic activity (Hendershot et al.). In kind it is in vivo. To be noted: oral 3 to 30 mg/Kg in carboxymethylcellulose, natural product = 1.0.
For the next series, the system named is gastropathy. Briefly: Gastric tolerance, severity of induced gastropathy. To be noted: rats, oral 3 to 30 mg/Kg in carboxymethylcellulose; natural product = 1.0. The procedure:
Gastric tolerance was measured by oral administration to rats assessing the severity of the gastropathy induced in accordance with the criteria described by Wallace et al. (Am. J. Physiol. 259, G642, 1990).
Study of the anti-inflammatory (I) and analgesic (II) properties (pharmacodynamics) and gastrointestinal tolerance (III) (toxicity) of the test compounds after oral administration of doses ranging from 3 to 30 mg/Kg in carboxymethylcellulose suspensions and constructing dose-responsecurves.
Activities are expressed as the potency ratio compared to the natural product used as a unit standard. The nitroderivative is that of the shown examples, the natural reference compound is that shown as a reference.

Series [1] relates to human platelets stimulated by thrombin. Kind of series: Platelet anti-aggregating activity in vitro. To be noted: 10^-5 to 10^-7 molar range, natural product = 1.0. In kind it is cell-based. An excerpt:
(§1) Example of the anti-cyclooxygenase (I), platelet anti-aggregating (II) and vasodilative (III) properties of the test compounds tested in vitro at concentrations in the molar range from 10^-5 to 10^-7 of the product in water/alcohol with the addition of small amounts of DMSO (dimethylsulphoxide). The activities are expressed as the potency ratio versus the natural product used as a unit standard, as stated in Table

Another series has as its system isolated rat aorta. Kind of series: Vasodilative activity, inhibition of contraction induced by epinephrine. The following applies: in vitro, 10^-5 to 10^-7 molar range.
From the text: as §1

In another series the test system is cyclo-oxygenase. Briefly: Anti-cyclooxygenase activity. Format: cell-based. The following applies: for anti-cyclooxygenase (I), potency ratio versus natural product: in vitro, 10^-5 to 10^-7 molar range, natural product = 1.0; for direct inhibition of cyclo-oxygenase COX-1 and COX-2: Table 4 data. The method, then:
(§2) The activity inhibiting cyclo-oxygenase was determined in isolated cells. Endothelial cells of bovine aorta were used as a source of COX-1 and macrophage line J774.2 as a source of COX-2. The same conditions described by Mitchell et al. (Proc. Nat. Acad. Sci. 90, 11693, 1993) for growth and the viability test were used.
(§3) In brief, the cells were incubated for 30 minutes with scalar concentrations of the test product and the substrate (arachidonic acid) was then added and incubated for another 15 minutes. Enzyme activity was determined radioimmunologically by measuring the formation of 6-keto-PGF 1 alpha. In the case of cell lines J.774.2, the cells were incubated for 12 hours with endotoxin to promote COX-2 formation.
as §1

The test system of the next series is nitrosynthetase (NOS). Kind of series: Nitrosynthetase (NOS) activity induced by LPS in rats. Format: in vivo, rat. To be noted: oral, LPS only = 100. The method, then: The nitrosynthetase inhibition activity induced by lipopolysaccharide (LPS) was determined in rat neutrophils and stomach after administration of one of the test compounds and compared with that obtained after treatment of the suspension vehicle only.
In brief, Wistar rats fasting for 24 hours before treatment were orally administered the test product (10 mg/Kg) and intravenously (caudal vein) administered LPS (5 mg/Kg).
Four hours later the animals were sacrificed and the blood--for neutrophils isolation--and the stomach taken.
Enzyme activity was determined in accordance with the method described by Assreuy et al. (Br. J. Pharmacol. 108, 833, 1993).
Study of the inhibitory properties of the nitrosynthetase (NOS) activity induced by liposaccharide (LPS) in rats using oral doses ranging from 5 to 20 mg/Kg suspended in a carboxymethylcellulose base.

Another series concerns the target T1, COX-1 (Bos taurus, UniProt O62664).
T1 construct: Endothelial cells of bovine aorta were used as a source of COX-1; endogenous in cells; host or cells: bovine aortic endothelial cells
T1 sequence (O62664 25-600): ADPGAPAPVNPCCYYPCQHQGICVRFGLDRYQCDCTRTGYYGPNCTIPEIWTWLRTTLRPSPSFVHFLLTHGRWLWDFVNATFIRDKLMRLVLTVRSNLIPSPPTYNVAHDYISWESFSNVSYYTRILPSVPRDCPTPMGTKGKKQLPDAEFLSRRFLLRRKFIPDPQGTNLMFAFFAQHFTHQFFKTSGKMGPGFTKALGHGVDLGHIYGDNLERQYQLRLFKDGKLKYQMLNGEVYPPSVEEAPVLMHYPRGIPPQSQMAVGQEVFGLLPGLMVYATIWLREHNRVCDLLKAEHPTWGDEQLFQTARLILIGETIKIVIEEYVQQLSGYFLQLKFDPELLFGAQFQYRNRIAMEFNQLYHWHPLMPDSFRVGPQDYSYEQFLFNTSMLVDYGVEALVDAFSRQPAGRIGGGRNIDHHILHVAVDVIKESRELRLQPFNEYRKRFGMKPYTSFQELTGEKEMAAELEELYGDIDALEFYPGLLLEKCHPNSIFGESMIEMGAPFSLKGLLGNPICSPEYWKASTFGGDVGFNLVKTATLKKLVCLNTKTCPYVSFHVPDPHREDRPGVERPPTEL
Kind of series: COX-1 inhibition in isolated cells. Format: cell-based, bovine. To be noted: read-out: COX-1 response, % of the controls with response variability. The procedure: as §2, §3
(§4) Study of the anti-cyclooxygenase (COX-1/COX-2) properties in isolated cells.
(§5) Response expressed as a % of the controls with relative response variability.

The target of the next series is T2, COX-2 (Mus musculus, UniProt Q05769).
T2 construct: endogenous in cells; host or cells: J774.2 macrophages, 12 h with endotoxin
T2 sequence (Q05769 18-604): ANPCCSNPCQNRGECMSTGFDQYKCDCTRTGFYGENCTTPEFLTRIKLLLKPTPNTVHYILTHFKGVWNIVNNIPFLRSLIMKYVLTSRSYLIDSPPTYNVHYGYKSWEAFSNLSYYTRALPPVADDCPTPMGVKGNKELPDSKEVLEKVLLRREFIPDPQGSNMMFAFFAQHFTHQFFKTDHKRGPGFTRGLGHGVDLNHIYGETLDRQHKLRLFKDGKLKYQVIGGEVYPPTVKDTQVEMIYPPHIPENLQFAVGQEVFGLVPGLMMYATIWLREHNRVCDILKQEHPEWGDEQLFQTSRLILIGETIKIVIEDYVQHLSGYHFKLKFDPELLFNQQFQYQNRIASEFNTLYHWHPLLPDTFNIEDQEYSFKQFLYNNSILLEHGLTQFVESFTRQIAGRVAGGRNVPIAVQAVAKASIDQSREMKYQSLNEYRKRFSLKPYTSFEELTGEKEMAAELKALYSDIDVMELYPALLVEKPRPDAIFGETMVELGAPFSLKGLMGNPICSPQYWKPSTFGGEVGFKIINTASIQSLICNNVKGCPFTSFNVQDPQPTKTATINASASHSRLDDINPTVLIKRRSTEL
Briefly: COX-2 inhibition in isolated cells. Format: cell-based. The procedure: as §2, §3, §4, §5

Another series concerns gastric mucous membrane. Kind of series: Gastric irritation of Tween 80 / dimethylsulphoxide suspensions. In kind it is in vivo. To be noted: suspension with Tween 80 and dimethylsulphoxide (0.1% and 1% for nitroxybutylflurbiprofen; lower amounts for NO-flurbiprofen derivative).
[2] abbreviates: 0.1 mg/ml, endothelial cells of bovine aorta.
The mark [3] stands for this setting: 1.0 mg/ml, endothelial cells of bovine aorta.
Where [4] appears, read: 0.1 mg/ml, macrophage line J774.2 with endotoxin, read-out: COX-2 response, % of the controls with response variability.
[5] abbreviates: 1.0 mg/ml, macrophage line J774.2 with endotoxin, read-out: COX-2 response, % of the controls with response variability.
Where [6] appears, read: J774.2, read-out: COX-2 response, % of the controls with response variability.

Nine compounds from patent US5861426A, “Nitro compounds of the formula A-Xi -NO2 and their compositions having anti-inflammatory, analgesic and anti-thrombotic activities” (Nicox S.A., priority 1994, dated 1999) can be followed below.

Like-named read-outs stand apart in the source and are kept apart here.

Experimental for Swiss mice: (§6) Study of the anti-inflammatory (I) and analgesic (II) properties (pharmacodynamics) and gastrointestinal tolerance (III) (toxicity) of the test compounds after oral administration of doses ranging from 3 to 30 mg/Kg in carboxymethylcellulose suspensions and constructing dose-responsecurves. […] Activities are expressed as the potency ratio compared to the natural product used as a unit standard.
Experimental for carrageenin-oedema: as §6

Take `CC(C(=O)Oc1cccc(CO[N+](=O)[O-])c1)c1cccc(C(=O)c2ccccc2)c1` (stereo not drawn) [Example 1c, 2-(3-benzoyl)phenylpropionate of 3-(nitroxymethyl)phenyl]: in the series on carrageenin-oedema, the “anti-inflammatory properties (I), potency ratio versus natural reference product” value is 1.0. In the series with Swiss mice, the “analgesic properties (II), potency ratio versus natural reference product” value is recorded as 1.2. The “gastrointestinal tolerance (III) (toxicity), potency ratio versus natural reference product” value with gastropathy came to 0.1. Besides, the “platelet anti-aggregating (II), potency ratio versus natural product” value in series [1] is 1.8. The “vasodilative (III), % of inhibitory action of the vasospasm induced by epinephrine” value in the series on isolated rat aorta worked out at 50%. In the series with cyclo-oxygenase, the “anti-cyclooxygenase (I), potency ratio versus natural product” value is on record as 1.2. For the same compound, in the series with nitrosynthetase (NOS), the “NOS, neutrophils; inhibition relative to the group treated with LPS only” value is reported as 30 and the “NOS, stomach; inhibition relative to the group treated with LPS only” value is listed as 40.
On to `O=C(O)Cc1ccccc1Nc1c(Cl)cccc1Cl` [DICLOFENAC, reference compound], for which the “vasodilative (III), % of inhibitory action of the vasospasm induced by epinephrine” value with isolated rat aorta is “inactive”.
With `CC(=O)Oc1ccccc1C(=O)O` [ASPIRIN, acetylsalicylic acid, reference compound], in the series on isolated rat aorta, the “vasodilative (III), % of inhibitory action of the vasospasm induced by epinephrine” value is “inactive”.
Consider `O=C(Cc1ccccc1Nc1c(Cl)cccc1Cl)OCCOCCO[N+](=O)[O-]` [Example 1b, 2-{N-[2,6-(dichloro)phenyl]amino}phenylacetate of 2-[2-(nitroxy)ethoxy]ethyl], for which, in the series with carrageenin-oedema, the “anti-inflammatory properties (I), potency ratio versus natural reference product” value was determined as 1.3. For the same compound, the “analgesic properties (II), potency ratio versus natural reference product” value in the series on Swiss mice is reported as 0.9. Besides, in the series with gastropathy, the “gastrointestinal tolerance (III) (toxicity), potency ratio versus natural reference product” value was determined as 0.3. Also, the “platelet anti-aggregating (II), potency ratio versus natural product” value in [1] was found to be 1.8. The “vasodilative (III), % of inhibitory action of the vasospasm induced by epinephrine” value in the series with isolated rat aorta was determined as 50%. In addition, in the series on cyclo-oxygenase, the “direct inhibition of cyclo-oxygenase COX-1 and COX-2” value is “capable of directly inhibiting cyclo-oxygenase COX-1 and COX-2”; the “anti-cyclooxygenase (I), potency ratio versus natural product” value stood at 1.8. In addition, the remaining activity at 100 µg/mL at COX-1 (setting [2]) was 49 ± 6%. Also, on COX-1 (setting [3]), the remaining activity at 1000 µg/mL worked out at 29 ± 4%. For the same compound, the remaining activity at 100 µg/mL at COX-2 (setting [4]) was determined as 45 ± 3%. For the same compound, on COX-2 (setting [5]), the remaining activity at 1000 µg/mL was 22 ± 4%. Moreover, in the series on nitrosynthetase (NOS), the “NOS, neutrophils; inhibition relative to the group treated with LPS only” value is recorded as 52 and the “NOS, stomach; inhibition relative to the group treated with LPS only” value is given as 40.
For `CC(C(=O)O)c1cccc(C(=O)c2ccccc2)c1` (stereo not drawn) [KETOPROFEN, 2-(3-benzoyl)phenyl propionic acid, reference compound], in the series on isolated rat aorta, the “vasodilative (III), % of inhibitory action of the vasospasm induced by epinephrine” value was “inactive”.
Take `CC(C(=O)OCCCCO[N+](=O)[O-])c1ccc(-c2ccccc2)c(F)c1` (stereo not drawn) [FLURBIPROFEN NITROXYBUTYLESTER]: at COX-1, the remaining activity at 100 µg/mL was found to be 48 ± 18% and the remaining activity at 1000 µg/mL worked out at 29 ± 13%. Besides, on COX-2 (setting [6]), the remaining activity at 100 µg/mL was 46 ± 23% and the remaining activity at 1000 µg/mL stood at 22 ± 14%. In addition, the “irritant effect on gastric mucous membrane” value in the series with gastric mucous membrane is on record as “irritant to the gastric mucous membrane”.
For the compound `O=C(Cc1ccccc1Nc1c(Cl)cccc1Cl)OCCCCO[N+](=O)[O-]` [DICLOFENAC NITROXYBUTYLESTER, reference compound], the “direct inhibition of cyclo-oxygenase COX-1 and COX-2” value with cyclo-oxygenase was “capable of directly inhibiting cyclo-oxygenase COX-1 and COX-2”. In addition, the values for the remaining activity at 100 µg/mL on COX-1 (setting [2]) and at COX-2 (setting [4]) were 45 ± 22% and 68 ± 11%, respectively. The figures for the remaining activity at 1000 µg/mL at COX-1 (setting [3]) and on COX-2 (setting [5]) were 24 ± 10% and 41 ± 11%, respectively. For the same compound, the “NOS, neutrophils; inhibition relative to the group treated with LPS only” value in the series with nitrosynthetase (NOS) is 49. In addition, the “NOS, stomach; inhibition relative to the group treated with LPS only” value in the series on nitrosynthetase (NOS) worked out at 37.
As to `CC(C(=O)OCCOCCO[N+](=O)[O-])c1ccc(-c2ccccc2)c(F)c1` (stereo not drawn) [Example 1e], the “anti-inflammatory properties (I), potency ratio versus natural reference product” value with carrageenin-oedema is reported as 1.0. In addition, in the series on Swiss mice, the “analgesic properties (II), potency ratio versus natural reference product” value was determined as 1.0. In addition, the “gastrointestinal tolerance (III) (toxicity), potency ratio versus natural reference product” value with gastropathy came out at 0.1. Also, the remaining activity at 1000 µg/mL at COX-1 (setting [3]) is 22 ± 3%; on COX-2 (setting [5]) it was 18 ± 2%. Moreover, at COX-2 (setting [4]), the remaining activity at 100 µg/mL turned out to be 47 ± 4%.
With `CC(=O)Oc1ccccc1C(=O)OCCOCCO[N+](=O)[O-]` [Example 1a, 2-acetoxy-benzoate of 2-[2-(nitroxy)ethoxy]ethyl], in the series with carrageenin-oedema, the “anti-inflammatory properties (I), potency ratio versus natural reference product” value stood at 1.2. Moreover, the “analgesic properties (II), potency ratio versus natural reference product” value in the series on Swiss mice was determined as 1.1. For the same compound, the “gastrointestinal tolerance (III) (toxicity), potency ratio versus natural reference product” value with gastropathy came to 0.2. The “platelet anti-aggregating (II), potency ratio versus natural product” value in [1] was 3.0. Besides, the “vasodilative (III), % of inhibitory action of the vasospasm induced by epinephrine” value with isolated rat aorta came out at 60%. For the same compound, the “anti-cyclooxygenase (I), potency ratio versus natural product” value in the series with cyclo-oxygenase was determined as 1.5.
